Experimental data published in patent US10751339B2, “Substituted aminopyrimidine compounds and methods of use” (SUNSHINE LAKE PHARMA CO., LTD., priority 2018, dated 2020).

How the values were obtained:
[1] = Compound stability in human liver microsomes; type: in vitro ADME; details: pH 7.4; for CLint scaled at 5 μM: liver microsomes, in vivo CLint extrapolated from human liver microsome incubation; for half-life at 5 μM: human liver microsomes 0.5 mg protein/mL, compound 5 μM, NADPH, 37° C., read-out: Human T1/2
Description: (§1) Human or rat liver microsomes incubations were conducted in duplicate in polypropylene tubes. The typical incubation mixtures consisted of human or rat liver microsomes (0.5 mg protein/mL), compounds of interest (5 μM) and NADPH (1.0 mM) in a total volume of 200 μL potassium phosphate buffer (PBS, 100 mM, pH 7.4). Compounds were dissolved in DMSO and diluted with PBS such that the final concentration of DMSO was 0.05%. The enzymatic reactions were commenced with the addition of protein after a 3-min preincubation and incubated in a water bath open to the air at 37° C. Reactions were terminated at various time points (0, 5, 10, 15, 30, 60 min) by adding equal volume of ice-cold acetonitrile. The samples were stored at −80° C. until LC/MS/MS assays.
(§2) The concentrations of compounds in the incubation mixtures of human or rat liver microsomes were determined by a LC/MS/MS method. The ranges of the linearity in the concentration range were determined for each tested compounds.
(§3) A parallel incubation was performed using denatured microsomes as the negative control, and reactions were terminated at various time points (0, 15, 60 min) after incubation at 37° C.
(§4) Dextromethorphan (70 μM) was selected as the positive control, and reactions were terminated at various time points (0, 5, 10, 15, 30, 60 min) after incubation at 37° C. Both positive and negative control samples were included in each assay to ensure the integrity of the microsomal incubation system.
(§5) The concentrations of compounds in human or rat liver microsome incubations were plotted as a percentage of the relevant zero time point control for each reaction.

[2] = Compound stability in rat liver microsomes; type: in vitro ADME; details: for CLint scaled at 5 μM: liver microsomes, in vivo CLint extrapolated from rat liver microsome incubation; for CLint scaled at 5 μM / half-life at 5 μM: pH 7.4; for half-life at 5 μM: read-out: Rat T1/2
Description: as §1, §2, §3, §4, §5

[3] = Pharmacokinetic profiles in rats; type: in vivo, rat; details: for clearance / AUC(0-t) / half-life / Vd: iv dosing 1 mg/kg; for AUC(0-t) / half-life / Vd / bioavailability: rat, plasma; for Vd: read-out: Vss; for bioavailability: oral bioavailability
Description: The compounds disclosed herein are assessed in pharmacokinetic studies in mice, rats, dogs or monkeys. The compounds are administered as a water solution, 2% HPMC+1% TWEEN®80 in water solution, 5% DMSO+5% solutol in saline, 4% MC suspension or capsule. For the intravenous administration, the animals are generally given at 1 or 2 mg/kg dose. For the oral (p.o.) dosing, mice and rats are generally given 5 or 10 mg/kg dose, and dogs and monkeys are generally given 10 mg/kg dose. The blood samples (0.3 mL) are drawn at 0.25, 0.5, 1.0, 2.0, 3.0, 4.0, 6.0, 8.0, 12 and 24 h time points or 0.083, 0.25, 0.5, 1.0, 2.0, 4.0, 6.0, 8.0 and 24 h time points and centrifuged at 3,000 or 4000 rpm for 2 to 10 min. The plasma solutions are collected, stored at −20° C. or −70° C. until analyzed by LC/MS/MS as described above.

PI3K (p110α/p85α) (h) = PI3K (p110α/p85α) (h) (Homo sapiens (Human), UniProt P42336); experiment: PI3K (p110α/p85α) (h) non-radioactive HTRF kinase assay; type: biochemical
Sequence of PI3K (p110α/p85α) (h) (P42336 whole entry, the tested form may be a part): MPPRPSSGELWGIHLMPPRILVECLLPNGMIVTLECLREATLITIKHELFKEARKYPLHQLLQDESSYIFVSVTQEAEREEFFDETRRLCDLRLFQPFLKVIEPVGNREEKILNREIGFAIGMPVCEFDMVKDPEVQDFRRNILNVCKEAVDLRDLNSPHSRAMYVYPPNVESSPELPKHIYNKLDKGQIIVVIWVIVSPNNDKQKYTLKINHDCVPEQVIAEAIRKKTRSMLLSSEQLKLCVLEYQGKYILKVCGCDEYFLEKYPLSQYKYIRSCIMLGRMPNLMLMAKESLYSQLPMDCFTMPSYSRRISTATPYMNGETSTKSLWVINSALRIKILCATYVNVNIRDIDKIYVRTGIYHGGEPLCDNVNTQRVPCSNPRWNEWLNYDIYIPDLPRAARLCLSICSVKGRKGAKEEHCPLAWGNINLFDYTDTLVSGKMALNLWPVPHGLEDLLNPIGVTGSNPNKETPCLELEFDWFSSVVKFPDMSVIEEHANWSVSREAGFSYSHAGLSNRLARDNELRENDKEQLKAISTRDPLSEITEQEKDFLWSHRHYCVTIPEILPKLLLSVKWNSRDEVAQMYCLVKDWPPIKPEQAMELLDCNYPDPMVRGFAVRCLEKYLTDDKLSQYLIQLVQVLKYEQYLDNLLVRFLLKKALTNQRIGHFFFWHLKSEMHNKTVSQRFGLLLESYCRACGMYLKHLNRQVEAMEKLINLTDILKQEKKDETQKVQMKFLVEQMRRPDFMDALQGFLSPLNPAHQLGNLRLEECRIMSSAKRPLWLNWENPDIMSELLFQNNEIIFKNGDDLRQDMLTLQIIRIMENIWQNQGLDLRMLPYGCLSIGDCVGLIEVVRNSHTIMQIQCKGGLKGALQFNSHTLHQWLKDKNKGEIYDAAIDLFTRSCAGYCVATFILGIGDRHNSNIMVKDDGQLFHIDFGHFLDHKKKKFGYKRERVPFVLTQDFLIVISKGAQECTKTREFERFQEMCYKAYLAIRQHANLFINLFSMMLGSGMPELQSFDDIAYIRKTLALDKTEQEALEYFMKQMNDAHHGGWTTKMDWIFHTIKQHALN
Sequence of PI3K (p110α/p85α) (h) (P27986 whole entry partner, the tested form may be a part): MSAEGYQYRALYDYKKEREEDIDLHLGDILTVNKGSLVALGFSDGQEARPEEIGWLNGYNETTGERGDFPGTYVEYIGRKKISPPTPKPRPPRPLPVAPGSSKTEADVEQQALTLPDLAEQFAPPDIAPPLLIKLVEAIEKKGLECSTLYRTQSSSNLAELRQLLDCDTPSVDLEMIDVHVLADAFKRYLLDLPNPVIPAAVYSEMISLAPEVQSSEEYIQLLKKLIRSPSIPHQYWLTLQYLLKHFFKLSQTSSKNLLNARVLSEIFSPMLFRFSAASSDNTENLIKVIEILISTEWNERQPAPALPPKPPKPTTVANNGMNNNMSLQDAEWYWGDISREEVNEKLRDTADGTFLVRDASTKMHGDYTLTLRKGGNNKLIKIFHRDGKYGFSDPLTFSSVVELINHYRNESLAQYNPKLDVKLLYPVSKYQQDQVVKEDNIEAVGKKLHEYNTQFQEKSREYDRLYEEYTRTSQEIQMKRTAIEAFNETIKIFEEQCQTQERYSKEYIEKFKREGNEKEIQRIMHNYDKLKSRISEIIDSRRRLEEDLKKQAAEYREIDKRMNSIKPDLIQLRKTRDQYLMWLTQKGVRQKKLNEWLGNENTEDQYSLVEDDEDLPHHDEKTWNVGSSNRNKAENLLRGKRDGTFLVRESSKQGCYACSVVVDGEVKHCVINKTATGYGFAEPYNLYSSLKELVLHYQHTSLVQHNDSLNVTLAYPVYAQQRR
Description: (§6) PI3K (p110α/p85α) (h) is incubated in assay buffer containing 10 μM phosphatidylinositol 4,5-bisphosphate and MgATP (concentration as required). The reaction is initiated by the addition of the ATP solution. After incubation for 30 minutes at room temperature, the reaction is stopped by the addition of stop solution containing EDTA and biotinylated phosphatidylinositol-3,4,5-trisphosphate. Finally, detection buffer is added, which contains europium-labelled anti-GST monoclonal antibody, GST-tagged GRP1 PH domain and streptavidin allophycocyanin. The plate is then read in timeresolved fluorescence mode and the homogenous time-resolved fluorescence (HTRF) signal is determined according to the formula HTRF=10000×(Em665 nm/Em620 nm).
(§7) The kinase assays described herein were performed at Millipore UK Ltd, Dundee Technology Park, Dundee DD2 1SW, UK.

PI3K (p110β/p85α) (h) = PI3K (p110β/p85α) (h) (Homo sapiens (Human), UniProt P42338); experiment: PI3K (p110β/p85α) (h) non-radioactive HTRF kinase assay; type: biochemical
Sequence of PI3K (p110β/p85α) (h) (P42338 whole entry): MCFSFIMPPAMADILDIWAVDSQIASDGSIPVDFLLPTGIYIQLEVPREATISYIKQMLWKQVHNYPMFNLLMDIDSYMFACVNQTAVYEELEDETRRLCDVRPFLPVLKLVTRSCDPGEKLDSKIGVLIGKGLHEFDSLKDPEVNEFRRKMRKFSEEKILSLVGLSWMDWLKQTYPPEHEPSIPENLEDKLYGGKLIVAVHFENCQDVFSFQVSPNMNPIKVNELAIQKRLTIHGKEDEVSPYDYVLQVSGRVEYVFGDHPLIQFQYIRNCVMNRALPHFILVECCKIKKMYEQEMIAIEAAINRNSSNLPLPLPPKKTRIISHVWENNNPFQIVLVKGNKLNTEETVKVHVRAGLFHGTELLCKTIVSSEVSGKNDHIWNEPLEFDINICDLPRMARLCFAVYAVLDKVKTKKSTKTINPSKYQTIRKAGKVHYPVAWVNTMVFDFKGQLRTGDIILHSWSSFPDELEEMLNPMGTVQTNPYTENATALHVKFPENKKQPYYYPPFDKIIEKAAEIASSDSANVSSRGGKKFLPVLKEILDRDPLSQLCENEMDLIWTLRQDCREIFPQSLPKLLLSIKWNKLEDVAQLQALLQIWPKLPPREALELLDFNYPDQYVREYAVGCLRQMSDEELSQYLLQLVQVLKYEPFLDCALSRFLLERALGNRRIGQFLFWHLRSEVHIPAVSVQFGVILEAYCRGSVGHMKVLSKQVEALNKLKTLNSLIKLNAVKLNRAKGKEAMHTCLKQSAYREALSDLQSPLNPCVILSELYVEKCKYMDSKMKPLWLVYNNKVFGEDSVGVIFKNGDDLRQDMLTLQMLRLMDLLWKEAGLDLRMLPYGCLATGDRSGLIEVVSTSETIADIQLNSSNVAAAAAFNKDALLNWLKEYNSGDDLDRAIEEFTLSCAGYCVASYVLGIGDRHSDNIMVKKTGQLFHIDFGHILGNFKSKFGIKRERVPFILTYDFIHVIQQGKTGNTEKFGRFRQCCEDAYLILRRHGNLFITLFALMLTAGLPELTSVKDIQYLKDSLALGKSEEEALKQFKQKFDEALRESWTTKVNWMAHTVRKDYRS
Sequence of PI3K (p110β/p85α) (h) (P27986 whole entry partner): as the sequence (P27986 whole entry partner, the tested form may be a part) above
Description: as §6, with “(p110β/p85α)” for “(p110α/p85α)”, “phosphatidylinositol-4,5-bisphosphate” for “phosphatidylinositol 4,5-bisphosphate”, “MgATP mix.” for “ATP solution.”, “streptavidin-allophycocyanin.” for “streptavidin allophycocyanin.”
as §7

PI3K (p110δ/p85α) (h) = PI3K (p110δ/p85α) (h) (Homo sapiens (Human), UniProt O00329); experiment: PI3K (p110δ/p85α) (h) non-radioactive HTRF kinase assay; type: biochemical
Sequence of PI3K (p110δ/p85α) (h) (O00329 whole entry): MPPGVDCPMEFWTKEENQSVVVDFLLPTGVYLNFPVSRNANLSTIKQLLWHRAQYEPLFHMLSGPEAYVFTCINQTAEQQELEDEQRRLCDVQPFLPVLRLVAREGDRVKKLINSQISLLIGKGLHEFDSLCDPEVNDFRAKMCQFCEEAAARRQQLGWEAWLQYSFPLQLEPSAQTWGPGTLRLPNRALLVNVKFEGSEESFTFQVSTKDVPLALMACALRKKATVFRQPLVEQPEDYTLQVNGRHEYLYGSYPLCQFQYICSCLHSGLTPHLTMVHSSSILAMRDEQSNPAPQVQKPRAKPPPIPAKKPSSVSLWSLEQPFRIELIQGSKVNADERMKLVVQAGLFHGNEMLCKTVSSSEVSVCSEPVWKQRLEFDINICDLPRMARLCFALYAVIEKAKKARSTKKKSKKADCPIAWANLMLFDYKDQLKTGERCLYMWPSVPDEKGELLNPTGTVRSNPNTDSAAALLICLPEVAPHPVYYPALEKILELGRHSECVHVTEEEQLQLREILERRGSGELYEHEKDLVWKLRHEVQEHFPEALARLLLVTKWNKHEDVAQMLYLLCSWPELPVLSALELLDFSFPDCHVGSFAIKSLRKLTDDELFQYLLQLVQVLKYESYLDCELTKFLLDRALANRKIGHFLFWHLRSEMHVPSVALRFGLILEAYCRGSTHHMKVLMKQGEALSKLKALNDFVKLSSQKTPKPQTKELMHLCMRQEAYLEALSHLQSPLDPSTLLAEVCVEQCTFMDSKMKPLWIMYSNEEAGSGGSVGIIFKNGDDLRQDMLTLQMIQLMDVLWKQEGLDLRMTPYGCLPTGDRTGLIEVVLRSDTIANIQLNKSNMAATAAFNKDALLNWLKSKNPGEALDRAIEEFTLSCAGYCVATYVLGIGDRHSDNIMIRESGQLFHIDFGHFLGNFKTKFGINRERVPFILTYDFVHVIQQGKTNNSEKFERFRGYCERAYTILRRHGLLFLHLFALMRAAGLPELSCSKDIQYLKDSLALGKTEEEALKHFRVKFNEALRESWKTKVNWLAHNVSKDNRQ
Sequence of PI3K (p110δ/p85α) (h) (P27986 whole entry partner): as the sequence (P27986 whole entry partner, the tested form may be a part) above
Description: as §6, with “(p110δ/p85α)” for “(p110α/p85α)”, “phosphatidylinositol-4, 5-bisphosphate” for “phosphatidylinositol 4,5-bisphosphate”, “MgATP mix.” for “ATP solution.”, “streptavidin-allophycocyanin.” for “streptavidin allophycocyanin.”
as §7

PI3K (p120γ) (h) = PI3K (p120γ) (h) (Homo sapiens (Human), UniProt P48736); experiment: PI3K (p120γ) (h) non-radioactive HTRF kinase assay; type: biochemical
Sequence of PI3K (p120γ) (h) (P48736 whole entry): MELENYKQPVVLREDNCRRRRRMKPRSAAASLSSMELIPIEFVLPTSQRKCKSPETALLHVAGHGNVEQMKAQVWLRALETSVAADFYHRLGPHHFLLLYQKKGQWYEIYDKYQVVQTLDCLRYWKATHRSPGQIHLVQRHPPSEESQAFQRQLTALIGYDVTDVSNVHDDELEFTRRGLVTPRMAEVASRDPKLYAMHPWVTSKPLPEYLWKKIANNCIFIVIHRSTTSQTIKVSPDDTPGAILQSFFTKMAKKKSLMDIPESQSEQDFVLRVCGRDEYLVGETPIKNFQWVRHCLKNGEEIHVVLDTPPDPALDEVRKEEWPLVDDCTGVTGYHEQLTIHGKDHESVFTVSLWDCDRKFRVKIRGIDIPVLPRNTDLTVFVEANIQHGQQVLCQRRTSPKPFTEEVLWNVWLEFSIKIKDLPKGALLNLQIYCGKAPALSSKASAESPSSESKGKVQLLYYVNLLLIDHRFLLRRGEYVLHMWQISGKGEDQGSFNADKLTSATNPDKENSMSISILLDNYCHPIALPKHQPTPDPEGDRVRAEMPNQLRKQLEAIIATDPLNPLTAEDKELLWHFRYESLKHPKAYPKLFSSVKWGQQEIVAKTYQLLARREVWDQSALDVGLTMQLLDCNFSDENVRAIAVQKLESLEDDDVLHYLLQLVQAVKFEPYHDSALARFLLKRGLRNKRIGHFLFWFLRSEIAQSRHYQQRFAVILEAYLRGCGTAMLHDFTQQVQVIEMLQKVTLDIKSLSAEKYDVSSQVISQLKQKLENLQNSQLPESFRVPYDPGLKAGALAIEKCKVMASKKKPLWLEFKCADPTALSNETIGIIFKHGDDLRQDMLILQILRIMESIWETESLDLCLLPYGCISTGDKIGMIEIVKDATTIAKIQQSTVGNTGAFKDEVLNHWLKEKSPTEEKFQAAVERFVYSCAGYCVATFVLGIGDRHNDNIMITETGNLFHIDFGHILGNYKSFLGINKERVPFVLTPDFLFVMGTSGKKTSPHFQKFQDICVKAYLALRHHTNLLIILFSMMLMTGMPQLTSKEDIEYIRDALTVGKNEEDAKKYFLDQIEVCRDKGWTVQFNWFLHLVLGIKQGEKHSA
Description: as §6, with “(p120γ)” for “(p110α/p85α)”, “phosphatidylinositol-4, 5-bisphosphate” for “phosphatidylinositol 4,5-bisphosphate”, “MgATP mix.” for “ATP solution.”, “streptavidin-allophycocyanin.” for “streptavidin allophycocyanin.”
as §7

[4] = rat liver microsomes 0.5 mg protein/mL, compound 5 μM, NADPH, 37° C.

Row | CLint scaled at 5 μM [1] [mL/min/kg] | half-life at 5 μM [1] [min] | Rat T1/2 [2, 4] | clearance [3] [L/h/kg] | AUC(0-t) [3] [ng·h/mL] | half-life [3] [min] | Vd [3] [L/kg] | bioavailability [3] [%] | CLint scaled at 5 μM [2] [mL/min/kg] | half-life at 5 μM [2, 4] [min] | IC50 (PI3K (p110α/p85α) (h)) [nM] | IC50 (PI3K (p110β/p85α) (h)) [nM] | IC50 (PI3K (p110δ/p85α) (h)) [nM] | IC50 (PI3K (p120γ) (h)) [nM] | SMILES
1 | 3.84 | 452 | ∞ | 0.68 | 1370 | 85.2 | 1.3 | 106 | – | – | – | – | – | – | Cc1nnc(-c2c(N)ncnc2N[C@@H](C)c2nc3cccc(C#CC(C)(C)O)c3c(=O)n2-c2ccccc2)o1 [Example 2, (S)-2-(1-((6-amino-5-(5-methyl-1,3,4-oxadiazol-2-yl)pyrimidin-4-yl)amino)ethyl)-5-(3-hydroxy-3-methylbut-1-yn-1-yl)-3-phenylquinazolin-4(3H)-one]
2 | 9.46 | 184 | – | 0.78 | 1210 | 106 | – | 146 | 4.75 | 523 | – | – | – | – | Cc1nc(-c2c(N)ncnc2N[C@@H](C)c2nc3cccc(C#CC(C)(C)O)c3c(=O)n2-c2ccccc2)no1 [Example 3, (S)-2-(1-((6-amino-5-(5-methyl-1,2,4-oxadiazol-3-yl)pyrimidin-4-yl)amino)ethyl)-5-(3-hydroxy-3-methylbut-1-yn-1-yl)-3-phenylquinazolin-4(3H)-one]
3 | 5.8 | 300 | – | 0.50 | 1870 | 112 | 1.04 | 134 | 5.58 | 445 | – | – | – | – | C[C@H](Nc1ncnc(N)c1-c1nnn(C)n1)c1nc2cccc(C#CC(C)(C)O)c2c(=O)n1-c1ccccc1 [Example 4, (S)-2-(1-((6-amino-5-(2-methyl-2H-tetrazol-5-yl)pyrimidin-4-yl)amino)ethyl)-5-(3-hydroxy-3-methylbut-1-yn-1-yl)-3-phenylquinazolin-4(3H)-one]
4 | 6.34 | 274 | – | 1.16 | 862 | 36.6 | 0.61 | 38.3 | 15.3 | 163 | – | – | – | – | Cc1nnc(-c2c(N)ncnc2N[C@@H](C)c2nc3cccc(C#CC(C)O)c3c(=O)n2-c2ccccc2)o1 (stereo partly drawn) [Example 7, 2-((S)-1-((6-amino-5-(5-methyl-1,3,4-oxadiazol-2-yl)pyrimidin-4-yl)amino)ethyl)-5-(3-hydroxybut-1-yn-1-yl)-3-phenylquinazolin-4(3H)-one]
5 | – | – | – | – | – | – | – | – | – | – | 2800 | 548 | 6 | 340 | CC#Cc1cccc2nc([C@H](C)Nc3ncnc(N)c3-c3nnc(C)o3)n(-c3ccccc3)c(=O)c12 [Example 10, (S)-2-(1-((6-amino-5-(5-methyl-1,3,4-oxadiazol-2-yl)pyrimidin-4-yl)amino)ethyl)-3-phenyl-5-(prop-1-yn-1-yl)quinazolin-4(3H)-one]
6 | – | – | – | – | – | – | – | – | – | – | > 3000 | > 3000 | 27 | 704 | CC#Cc1cccc2nc([C@H](CC)Nc3ncnc(N)c3-c3nnc(C)o3)n(-c3ccccc3)c(=O)c12 [Example 15, (S)-2-(1-((6-amino-5-(5-methyl-1,3,4-oxadiazol-2-yl)pyrimidin-4-yl)amino)propyl)-3-phenyl-5-(prop-1-yn-1-yl)quinazolin-4(3H)-one]
7 | 62.5 | 27.8 | – | 1.52 | 675 | 58.2 | 1.83 | 83.7 | 41.8 | 59.5 | – | – | – | – | CC#Cc1cccc2nc([C@H](C)Nc3ncnc(N)c3-c3nnc(C)o3)n(C3CC3)c(=O)c12 [Example 22]
8 | – | – | – | – | – | – | – | – | – | – | 1000 | 104 | 11 | 118 | Cc1noc(-c2c(N)ncnc2N[C@@H](C)c2cc3cccc(C#CCO)c3c(=O)n2C2CC2)n1 [Example 33, (S)-3-(1-((6-amino-5-(3-methyl-1,2,4-oxadiazol-5-yl)-pyrimidin-4-yl)amino)ethyl)-2-cyclopropyl-8-(3-hydroxyprop-1-yn-1-yl)-isoquinolin-1 (2H)-one]
9 | 40.4 | 43 | – | 1.28 | 790 | 45.6 | 1.35 | 40.4 | 52.7 | 47.1 | – | – | – | – | Cc1nc(-c2c(N)ncnc2N[C@@H](C)c2nc3cccc(C#CCO)c3c(=O)n2-c2ccccc2)no1 [Example 38, (S)-2-(1-((6-amino-5-(5-methyl-1,2,4-oxadiazol-3-yl)pyrimidin-4-yl)amino)ethyl)-5-(3-hydroxyprop-1-yn-1-yl)-3-phenylquinazolin-4(3H)-one]
10 | – | – | – | – | – | – | – | – | – | – | 704 | 154 | 5 | 44 | Cc1noc(-c2c(N)ncnc2N[C@@H](C)c2cc3cccc(C#CCO)c3c(=O)n2-c2ccccc2)n1 [Example 40, (S)-3-(1-((6-amino-5-(3-methyl-1,2,4-oxadiazol-5-yl)pyrimidin-4-yl)amino)ethyl)-8-(3-hydroxyprop-1-yn-1-yl)-2-phenylisoquinolin-1 (2H)-one]
11 | 89.4 | 19.4 | – | 1.38 | 722 | 43.8 | 1.11 | 70.8 | 79.8 | 31.1 | – | – | – | – | C#Cc1cccc2nc([C@H](C)Nc3ncnc(N)c3-c3nnn(C)n3)n(C3CC3)c(=O)c12 [Example 52, (S)-2-(1-((6-amino-5-(2-methyl-2H-tetrazol-5-yl)pyrimidin-4-yl)amino)ethyl)-3-cyclopropyl-5-ethynylquinazolin-4(3H)-one]
